Experimental data reported in ChEMBL document CHEMBL1155089, “Discovery of an Aurora kinase inhibitor through site-specific dynamic combinatorial chemistry” (Bioorg Med Chem Lett, 2008).

Biological target: T1, Aurora kinase A (Homo sapiens, UniProt O14965)
T1 sequence (O14965 whole entry): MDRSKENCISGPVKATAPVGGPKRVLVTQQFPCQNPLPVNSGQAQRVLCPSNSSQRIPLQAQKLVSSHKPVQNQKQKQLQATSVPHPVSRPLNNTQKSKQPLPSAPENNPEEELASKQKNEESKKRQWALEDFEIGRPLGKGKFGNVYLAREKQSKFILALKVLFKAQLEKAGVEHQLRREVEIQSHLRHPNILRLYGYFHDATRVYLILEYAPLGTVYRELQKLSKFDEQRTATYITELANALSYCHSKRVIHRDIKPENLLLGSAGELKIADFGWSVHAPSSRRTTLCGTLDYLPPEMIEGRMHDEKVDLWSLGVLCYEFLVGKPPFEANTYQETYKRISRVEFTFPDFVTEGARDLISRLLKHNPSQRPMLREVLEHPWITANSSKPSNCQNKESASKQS
Assay: Inhibition of Aurora kinase A

IC50 [µM]	SMILES
17	CCCCNC(=O)c1cccc(NC(=O)CCCCCCNc2cc(N)ncn2)c1
> 100	CCCCCCNc1ncnc2nc[nH]c12
2.9	CCCCNC(=O)c1cccc(NC(=O)CCCCCNc2ncnc3nc[nH]c23)c1
